Marks after values point to notes of the source that are not given here.

The source of these data is patent US11266668B2, “Dietary supplement for glycemia control and diabetes prevention” (WORLD PHARMACEUTICAL TECHNOLOGY, LLC., priority 2018, dated 2022).

Data set [1] concerns Sprague-Dawley (SD) rats. The data set can be described thus: sucrose loading test (postprandial blood glucose after sucrose gavage). It counts as in vivo, rat. As to conditions: male SD rats, sucrose 2.0 g/kg gavage, 5 mg/kg. As to the method:
The inhibitory effect of Example Formula 1 and Example Formula 2 (see Table 1 and Table 2) on postprandial hyperglycemia after carbohydrate loading in Sprague-Dawley (SD) rats was assessed. All animal studies were performed according to the Act on Welfare and Management of Animals law—Act No. 105 of Oct. 1, 1973. Six week-old male SD rats were utilized and fed a solid diet for one week. Rats were housed five per cage in a room with a 12:12 hour light:dark cycle and an ambient temperature of 22-25° C. After 4 groups (n=5) were fasted for one day, 2.0 g/kg of sucrose were gavaged concurrently with Example Formula 1 (200 and 400 mg/kg) (e.g., provided at 200 or 400 mg total weight of Example Formula 1 per 1 Kg of the testing subject or patient) or 5 mg/kg Acarbose. The blood samples were collected from the tail after treatment and blood glucose concentrations were determined at 0, 0.5, 1, and 2 hours by utilizing glucose oxidase method. FIG. 1 and FIG. 2 show the effect of different dosage of Example Formula 1 or Example Formula 2 on sucrose loading test. After fasting for one day, 7-week-old, male SD rats were gavaged with sucrose solution (2.0 g/kg) with or without (the Control sample) Example Formula 1 or Example Formula 2. Acarbose was utilized as a positive control. Each point in the drawing represents mean±SD. (n=5). *p<0.05, **p<0.01 versus their corresponding controls at the same time points by unpaired Student's t-test. After fasting for one day, 7-week-old, male SD rats were gavaged with sucrose solution (2.0 g/kg) with or without the Comparative Example Formula 1. Acarbose was used as a positive control. Each point represents mean±SD. (n=5). *p<0.05, **p<0.01 versus their corresponding controls at the same time points by unpaired Student's t-test. Table 4 below lists the blood glucose level of rats under different dosage of Example Formula 1 and Comparative Example Formula 1 on sucrose loading test (unit: mM). The procedure is as described above. After fasting for one day, 7-week-old, male SD rats were gavaged with sucrose solution (2.0 g/kg) with or without Example Formula 1 or Comparative Example Formula 1. Acarbose was used as a positive control. Each point represents mean±SD. (n=5). *p<0.05, **p<0.01 versus their corresponding controls at the same time points by unpaired Student's t-test.

The conditions of data set [2]: clinical phase I dose-escalation trial; cited from earlier work.

In the case of `C[C@H]1O[C@H](O[C@H]2[C@H](O)[C@@H](O)[C@@H](O[C@H]3[C@H](O)[C@@H](O)C(O)O[C@@H]3CO)O[C@@H]2CO)[C@H](O)[C@@H](O)[C@@H]1N[C@H]1C=C(CO)[C@@H](O)[C@H](O)[C@H]1O` (some centres unmarked) [Acarbose], the blood glucose level in data set [1] (time 0 hour) was 5.4 ± 0.2 mM; in data set [1] (time 0.5 hour), 6.5 ± 0.3** mM; in data set [1] (time 1 hour), 6.9 ± 0.4** mM; in data set [1] (time 2 hour), 6.5 ± 0.4 mM.
As to `O=CC[C@@H](O)[C@H](O)[C@H](O)CO` [2-deoxy-D-glucose], the clinically tolerable dose in data set [2] is on record as 63 mg/kg.
